# In patent US10993935B2, “Compositions and methods for treatment of lung infections” (priority 2018, dated 2021):
# Like-named read-outs stand apart in the source and are kept apart here.
# Columns and labels:
# [1] = system: promoter PalgD of the alginate biosynthetic operon; assay: PalgD-lacZ promoter reporter (β-galactosidase) activity; assay type: cell-based, Pseudomonas aeruginosa; settings: PAO581, CF001, CF010; MIC1, MIC10, MIC30, MIC50 on PIA, 37° C., 24 h
# Procedure: FIGS. 2A-2C include graphs showing RFX versus TOB mediated inhibition of the promoter PalgD activity of the alginate biosynthetic operon in laboratory and clinical isolates of P. aeruginosa. The β-galactosidase activity of PalgD was measured using the pLP170-PalgD-lacZ reporter construct in PAO581 (FIG. 2A), CF001 (FIG. 2B), and CF010 (FIG. 2C) grown on PIA plates with increasing concentrations of RFX or TOB (MIC1, MIC10, MIC30, MIC50) at 37° C. for 24 h. Relative expression mean values are shown ±SE of triplicate determinations. Two-way ANOVA was used to determine statistical significance set at a P value of <0.01 (****, P<0.0001).
# While RFX inhibits alginate production, additional experiments were conducted to determine whether the inhibition was specific to alginate or whether it was a global suppression of transcription. To test this, the promoter reporter constructs PalgD_lacZ in pLP170 were used to quantify the promoter activity of the alginate biosynthetic operon PalgD. A promoter-less empty vector pLP170-lacZ was used as a negative control. Using the β-galactosidase reporter activity, the activity of PalgD in PAO581 was quantified (FIG. 2A), and two mucoid isolates (CF001 and CF010) from CF patients.
# P. aeruginosa strains = assay: MIC and synergy testing (checkerboard/isobologram) of RFX and TOB; assay type: cell-based, Pseudomonas aeruginosa; settings: strain CF003, NM
# [2] = Solubility of RFX in nebulization solvents; assay type: physicochemical
# Procedure: As treatment for traveler's diarrhea, RFX is a drug optimized for oral use. For RFX to be useful as a treatment for CF patients, it was determined whether RFX could be delivered to the lungs through nebulization. Nebulizing RFX was initially unsuccessful and more difficult than presumed. […] RFX was not soluble in water-based solutions, but was soluble in dimethyl-sulfoxide (DMSO) and ETOH (ethanol) in small volumes. […] However, 100% DMSO could be used to retain RFX in solution and deliver to the lungs as noted by HPLC data.
# Staphylococcus aureus = assay: RFX MIC testing against MDR clinical isolates; assay type: cell-based
# Procedure: (§1) Minimum Inhibitory Concentration Testing. MIC testing was performed as previously described. Briefly, overnight culture of bacteria was diluted in 1:100 of a 0.5 McFarland standard as inoculum. The same number of cells was grown in LB broth containing serial, two-fold dilutions of rifaximin (RFX) or tobramycin (TOB). Growth was measured via optical density (OD) at 600 nm after 24 h incubation at 37° C. Concentrations of antibiotic required for inhibition of 50% and 90% of strains were determined.
# (§2) Because RFX was not a traditional treatment for P. aeruginosa infections, it was first tested whether RFX was effective in vitro against P. aeruginosa and other bacterial pathogens seen in CF. Since RFX is not used for treatment of ventilator-associated pneumonia (VAP), it was thought the isolates of tracheal aspirates from VAP patients in the ICU may be sensitive to RFX. To determine the susceptibility to RFX, resistant isolates from the Cabell Huntington Hospital were chosen to measure the minimum inhibitory concentrations (MIC) for RFX (Table 3).
# (§3) MIC50 and MIC90 are the concentrations of RFX required for the growth inhibition of 50% and 90% of strains, respectively.
# Pseudomonas aeruginosa = assay: RFX MIC testing against MDR clinical isolates; assay type: cell-based
# Procedure: as §1, §2, §3
# Acinetobacter baumannii = assay: RFX MIC testing against MDR clinical isolates; assay type: cell-based
# Procedure: as §1, §2, §3
# Burkholderia cepacia = assay: RFX MIC testing against MDR clinical isolates; assay type: cell-based
# Procedure: as §1, §2, §3
# [3] = system: Stenotrophomonas maltophilia; assay: RFX MIC testing against MDR clinical isolates; assay type: cell-based
# Procedure: as §1, §2, §3
# [4] = system: clinical mucoid isolate from a CF patient; assay: Further test of screen hits on a clinical mucoid isolate; assay type: cell-based, Pseudomonas aeruginosa; settings: compared with the other screen hits of Table 2
# [5] = Particle (droplet) size analysis of aerosol drugs; assay type: physicochemical; settings: 60 mg/mL; TOB in 0.225% saline, RFX in 100% DMSO; nebulizer aerosol, Malvern Spraytec
# Procedure: Particle Size Analysis of Aerosol Drugs. Droplet size analysis of drugs used for aerosol therapy was conducted by Spray Analytics (Lincolnshire, Ill.). Samples of TOB in 0.225% saline and RFX in 100% DMSO at concentrations of 60 mg/mL for both were prepared and submitted along with nebulizer unit used for animal experiments. A Malvern Spraytec was used for analysis with the tested product sprayed horizontally at less than 5 cm from the detector beam. The samples were measured in triplicates for 20-30 seconds of stable operation of the nebulizer. Refractive index and absorption values used were that of DMSO for RFX and water for TOB.
# The potential adverse effects of using DMSO were first assessed by nebulizing DMSO alone to a group of C57BL/6 mice (n=8). This type of mice was used due to their natural resistance against infection based on our previous studies. […] Next, the delivery of both RFX and TOB via nebulization was optimized. […] To determine the dosage of each drug received by the mice, the lungs were homogenized and drug concentrations of TOB and RFX were determined via ELISA and HPLC, respectively. […] The droplet size for both TOB and RFX were determined to be identical with the average droplet size for TOB and RFX being 5.07 μm and 5.02 μm, respectively.
# [6] = Stenotrophomonas maltophilia, 1 strain
smiles,measurement,setting,value
"CO[C@H]1/C=C/O[C@@]2(C)Oc3c(C)c(O)c4c(O)c(c5c(nc6cc(C)ccn65)c4c3C2=O)NC(=O)/C(C)=C\C=C\[C@H](C)[C@H](O)[C@@H](C)[C@@H](O)[C@@H](C)[C@H](OC(C)=O)[C@@H]1C [RFX, rifaximin]",PalgD promoter activity (β-galactosidase reporter),[1],more pronounced effect on promoter activity than TOB
same,FIC RFX,P. aeruginosa strains,0.25
same,MIC RFX in Combination,P. aeruginosa strains; in combination with TOB,1
same,solubility,"[2]; in 20%, 40%, and 80% DMSO in PBS, came out of solution on nebulization",partially or fully dissolve
same,solubility,[2]; in DMSO,readily soluble
same,solubility,[2]; in PBS or saline,did not dissolve
same,solubility,[2]; in dimethyl-sulfoxide (DMSO) and ETOH (ethanol) in small volumes,soluble
same,solubility,[2]; in water,only sparingly soluble
same,solubility,[2]; in water-based solutions,not soluble
same,MIC50,"Staphylococcus aureus; 22 strains, concentration inhibiting growth of 50% of strains",2 µg/mL
same,MIC90,"Staphylococcus aureus; 22 strains, concentration inhibiting growth of 90% of strains",16 µg/mL
same,MIC50,Staphylococcus aureus; MDR S. aureus including MRSA,2 µg/mL
same,MIC90,Staphylococcus aureus; MDR S. aureus including MRSA,16 µg/mL
same,MIC50,"Pseudomonas aeruginosa; 26 MDR clinical isolates, concentration inhibiting growth of 50% of strains",8 µg/mL
same,MIC90,"Pseudomonas aeruginosa; 26 MDR clinical isolates, concentration inhibiting growth of 90% of strains",16 µg/mL
same,MIC50,"Pseudomonas aeruginosa; Pseudomonas aeruginosa, MDR P. aeruginosa, read-out: MIC50",8 µg/mL
same,MIC90,"Pseudomonas aeruginosa; Pseudomonas aeruginosa, MDR P. aeruginosa, read-out: MIC90",16 µg/mL
same,MIC50,"Acinetobacter baumannii; Acinetobacter baumannii, 9 strains, concentration inhibiting growth of 50% of strains",< 0.5 µg/mL
same,MIC90,"Acinetobacter baumannii; Acinetobacter baumannii, 9 strains, concentration inhibiting growth of 90% of strains",< 0.5 µg/mL
same,growth of clinical isolates,"Acinetobacter baumannii; clinical isolates, in words",effectively inhibit the growth
same,MIC50,"Burkholderia cepacia; Burkholderia cepacia, 4 strains, concentration inhibiting growth of 50% of strains",16 µg/mL
same,MIC90,"Burkholderia cepacia; Burkholderia cepacia, 4 strains, concentration inhibiting growth of 90% of strains",32 µg/mL
same,growth of clinical isolates,"Burkholderia cepacia; clinical isolates, in words",effectively inhibit the growth
same,MIC50,[3]; [6],16 µg/mL
same,MIC90,[3]; [6],16 µg/mL
same,growth of clinical isolates,"[3]; clinical isolates, in words",effectively inhibit the growth
same,inhibition of growth and mucoidy,[4],most effective drug to inhibit the growth and mucoidy
same,average droplet size,[5],5.02 μm
"NC[C@H]1O[C@H](O[C@H]2[C@H](O)[C@@H](O[C@H]3O[C@H](CO)[C@@H](O)[C@H](N)[C@H]3O)[C@H](N)C[C@@H]2N)[C@H](N)C[C@@H]1O [TOB, tobramycin]",average droplet size,[5],5.07 μm
